Measured values reported in PMC7377239, “Cardiovascular Effects of Polychlorinated Biphenyls and Their Major Metabolites” (Environmental Health Perspectives, 2020).
Read-outs that look alike come from different tables or passages of the source.

Assays:
[1] = test system: iCell endothelial cells (human iPSC-derived ECs); assay: Tube formation (tubulogenesis) assay in iCell endothelial cells, 18 h; type: cell-based; details: Homo sapiens, Endothelial cell; for activity at 0.1 µM: 0.10 µM
In short: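 iCell ECs (passages 1–5) seeded 7,500 cells/well on reduced-growth-factor Geltrex in starvation medium, exposed overnight at 37°C to compounds in triplicate concentration–response (0.5% DMSO vehicle). Calcein AM staining, 4× imaging, angiogenesis image analysis; readouts normalized to vehicle, four-parameter logistic fit, POD at 1 SD of vehicle; 100 μM assigned NOAEL if no response.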

[2] = test system: iCell endothelial cells (human iPSC-derived ECs); assay: High-content imaging cytotoxicity in iCell endothelial cells, 24 h; type: cell-based; details: for viability at 0.01 µM / activity at 0.01 µM / viability at 0.1 µM / activity at 0.1 µM / viability at 1 µM / activity at 1 µM / viability at 10 µM / activity at 10 µM / viability at 100 µM / activity at 100 µM / minimal effective concentration: Homo sapiens, Endothelial cell; for viability at 0.1 µM / activity at 0.1 µM: 0.10 µM
In short: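 Human iPSC-derived endothelial cells (passages 1–5) were grown to a fibronectin-coated monolayer, then exposed 24 h at 37 °C with 0.5% DMSO vehicle. Staining was Hoechst 33342, MitoTracker Orange and calcein AM, read by high-content imaging. Point of departure came from 4-parameter logistic fits, with a 1-SD vehicle cutoff and 100 µM as the top concentration.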

[3] = iPSC-EC, 0.00 µM = 100.00, read-out: endo.mtl.18hr
[4] = iPSC-EC, 0.00 µM = 100.00, read-out: endo.tlps.18hr
[5] = iPSC-EC, 0.00 µM = 100.00, read-out: endo.tta.18hr
[6] = iPSC-EC, 0.00 µM = 100.00, read-out: endo.ttl.18hr
[7] = iPSC-EC, 0.00 µM = 100.00, read-out: endo.cyto.24hr
[8] = iPSC-EC, 0.00 µM = 100.00, read-out: endo.mito.24hr
[9] = iPSC-EC, 0.00 µM = 100.00, read-out: endo.mitoint.24hr
[10] = iPSC-EC, 0.00 µM = 100.00, read-out: endo.nma.24hr
[11] = iPSC-EC, 0.00 µM = 100.00, read-out: endo.tc.24hrs

Compound `Clc1ccc(-c2cc(Cl)c(Cl)c(Cl)c2)cc1Cl` [PCB126] has an activity at 0.01 µM [1, 3] of 99.5%, an activity at 0.01 µM [1, 4] of 175% and an activity at 0.01 µM [1, 5] of 91%. The activity at 0.01 µM [1, 6] was 90.1%, the activity at 0.1 µM [1, 3] was 125% and the activity at 0.1 µM [1, 4] was 110%. The activity at 0.1 µM [1, 5] was 130%, the activity at 0.1 µM [1, 6] was 136% and the activity at 1 µM [1, 3] was 104%. It also gave an activity at 1 µM [1, 4] of 99.1%, an activity at 1 µM [1, 5] of 126% and an activity at 1 µM [1, 6] of 125%. The activity at 10 µM [1, 3] was 93.8%, the activity at 10 µM [1, 4] was 52.4% and the activity at 10 µM [1, 5] was 91.2%. It also gave an activity at 10 µM [1, 6] of 100%, an activity at 100 µM [1, 3] of 74.1% and an activity at 100 µM [1, 4] of 40.1%. It also gave an activity at 100 µM [1, 5] of 41.4%, an activity at 100 µM [1, 6] of 39.6% and a minimal effective concentration ([1]; iPSC-EC, 100.00 = highest concentration tested, read-out: endo.mtl.18hr POD) of 28.1 µM. It also gave a minimal effective concentration ([1]; iPSC-EC, 100.00 = highest concentration tested, read-out: endo.tlps.18hr POD) of 4.68 µM, a minimal effective concentration ([1]; iPSC-EC, 100.00 = highest concentration tested, read-out: endo.tta.18hr POD) of 25.7 µM and a minimal effective concentration ([1]; iPSC-EC, 100.00 = highest concentration tested, read-out: endo.ttl.18hr POD) of 38.9 µM. It also gave a viability at 0.01 µM [2, 7] of 100%, an activity at 0.01 µM [2, 8] of 99.1% and an activity at 0.01 µM [2, 9] of 79.8%. It also gave an activity at 0.01 µM [2, 10] of 97.4%, a viability at 0.01 µM [2, 11] of 100% and a viability at 0.1 µM [2, 7] of 95%. For the same compound, the activity at 0.1 µM [2, 8] was 95.2%, the activity at 0.1 µM [2, 9] was 106% and the activity at 0.1 µM [2, 10] was 97.8%. It also gave a viability at 0.1 µM [2, 11] of 95%, a viability at 1 µM [2, 7] of 93.4% and an activity at 1 µM [2, 8] of 93.4%. For the same compound, the activity at 1 µM [2, 9] was 100%, the activity at 1 µM [2, 10] was 101% and the viability at 1 µM [2, 11] was 93.4%. It also gave a viability at 10 µM [2, 7] of 87.7%, an activity at 10 µM [2, 8] of 87.6% and an activity at 10 µM [2, 9] of 110%. The activity at 10 µM [2, 10] was 103%, the viability at 10 µM [2, 11] was 87.7% and the viability at 100 µM [2, 7] was 75.3%. The activity at 100 µM [2, 8] was 74.9%, the activity at 100 µM [2, 9] was 151% and the activity at 100 µM [2, 10] was 98.8%. For the same compound, the viability at 100 µM [2, 11] was 76.9%, the minimal effective concentration ([2]; iPSC-EC, 100.00 = highest concentration tested, read-out: endo.cyto.24hr POD) was 0.33 µM and the minimal effective concentration ([2]; iPSC-EC, 100.00 = highest concentration tested, read-out: endo.mito.24hr POD) was 0.33 µM. The minimal effective concentration ([2]; iPSC-EC, 100.00 = highest concentration tested, read-out: endo.mitoint.24hr POD) was 10.2 µM, the minimal effective concentration ([2]; iPSC-EC, 100.00 = highest concentration tested, read-out: endo.nma.24hr POD) was 100 µM and the minimal effective concentration ([2]; iPSC-EC, 100.00 = highest concentration tested, read-out: endo.tc.24hrs POD) was 0.34 µM.

`Clc1ccc(-c2ccccc2)cc1` [PCB 3, 4-chlorobiphenyl] gave a minimal effective concentration ([1]; endothelial cells (endo), tube formation mtl, 18 hr, read-out: POD endo.mtl.18hr) of 100 µM, a minimal effective concentration ([1]; endothelial cells (endo), tube formation tlps, 18 hr, read-out: POD endo.tlps.18hr) of 100 µM and a minimal effective concentration ([1]; endothelial cells (endo), tube formation tta, 18 hr, read-out: POD endo.tta.18hr) of 100 µM. The minimal effective concentration ([1]; endothelial cells (endo), tube formation ttl, 18 hr, read-out: POD endo.ttl.18hr) was 100 µM, the minimal effective concentration ([2]; endothelial cells (endo), cyto, 24 hr, read-out: POD endo.cyto.24hr) was 100 µM and the minimal effective concentration ([2]; endothelial cells (endo), mito, 24 hr, read-out: POD endo.mito.24hr) was 100 µM. For the same compound, the minimal effective concentration ([2]; endothelial cells (endo), mitoint, 24 hr, read-out: POD endo.mitoint.24hr) was 100 µM, the minimal effective concentration ([2]; endothelial cells (endo), nma, 24 hr, read-out: POD endo.nma.24hr) was 100 µM and the minimal effective concentration ([2]; endothelial cells (endo), tc, 24 hr, read-out: POD endo.tc.24hr) was 100 µM. The “effect on cell viability in iPSC-ECs” value ([2]; iPSC-ECs, 0.01-100 μM) was “did not affect cell viability”.
